Numbers after ± are expanded uncertainties.
Legend:
[1] = 100 kPa, Liquid; for speed of sound: Frequency=3 MHz, Single path-length method; for mass density: Vibrating tube method
[2] = xn = mol fraction of the nth substance listed; conditions: 100 kPa, Liquid, x2 = 0; for speed of sound: Frequency=3 MHz, Single path-length method; for mass density: Vibrating tube method

speed of sound ([1]; 293.15 K) | mass density ([1]; 293.15 K) | speed of sound ([1]; 298.15 K) | mass density ([1]; 298.15 K) | speed of sound ([1]; 303.15 K) | mass density ([1]; 303.15 K) | speed of sound ([1]; 308.15 K) | mass density ([1]; 308.15 K) | speed of sound ([1]; 313.15 K) | mass density ([1]; 313.15 K) | speed of sound ([2]; 293.15 K) | mass density ([2]; 293.15 K) | speed of sound ([2]; 298.15 K) | mass density ([2]; 298.15 K) | speed of sound ([2]; 303.15 K) | mass density ([2]; 303.15 K) | speed of sound ([2]; 308.15 K) | mass density ([2]; 308.15 K) | speed of sound ([2]; 313.15 K) | mass density ([2]; 313.15 K) | SMILES
1378.2 ± 2.5 m/s | 952.288 ± 0.41 kg/m3 | 1361.3 ± 2.5 m/s | 948.1 ± 0.41 kg/m3 | 1344.5 ± 2.5 m/s | 943.909 ± 0.41 kg/m3 | 1326.4 ± 2.5 m/s | 939.704 ± 0.41 kg/m3 | 1307.7 ± 2.5 m/s | 935.503 ± 0.41 kg/m3 |  |  |  |  |  |  |  |  |  |  | CCCCOCCOCCO [3,6-dioxa-1-decanol]
 |  |  |  |  |  |  |  |  |  | 1396.7 ± 2.5 m/s | 829.898 ± 0.42 kg/m3 | 1379.4 ± 2.5 m/s | 826.489 ± 0.42 kg/m3 | 1362.4 ± 2.5 m/s | 823.069 ± 0.42 kg/m3 | 1345.6 ± 2.5 m/s | 819.635 ± 0.42 kg/m3 | 1329.1 ± 2.5 m/s | 816.188 ± 0.42 kg/m3 | CCCCCCCCCCO [decan-1-ol] + CCCCOCCOCCO
 |  |  |  |  |  |  |  |  |  | 1320.4 ± 2.5 m/s | 819.239 ± 0.42 kg/m3 | 1303.5 ± 2.5 m/s | 815.652 ± 0.42 kg/m3 | 1286.7 ± 2.5 m/s | 812.043 ± 0.42 kg/m3 | 1270 ± 2.5 m/s | 808.402 ± 0.42 kg/m3 | 1253.5 ± 2.5 m/s | 804.743 ± 0.42 kg/m3 | CCCCCCO [hexan-1-ol] + CCCCOCCOCCO
 |  |  |  |  |  |  |  |  |  | 1364.1 ± 2.4 m/s | 825.337 ± 0.41 kg/m3 | 1347.3 ± 2.4 m/s | 821.877 ± 0.41 kg/m3 | 1331 ± 2.4 m/s | 818.4 ± 0.41 kg/m3 | 1314.3 ± 2.4 m/s | 814.903 ± 0.41 kg/m3 | 1297.7 ± 2.4 m/s | 811.385 ± 0.41 kg/m3 | CCCCCCCCO [octan-1-ol] + CCCCOCCOCCO

Reference: the NIST ThermoML archive (doi:10.1016/j.jct.2018.06.015)
